Assay: recombinant barcode read abundance after kanamycin selection (control-corrected) (log10(CPM+1)); higher = more efficient recombination; sequences stand for … in AGTGCAGAGAAAATCGGCCAGTTTTCTCTGCCTGCAGTCCGCATGCCGT…AGATTTATGCAGCGGACTGCCTTTCTCCCAAAGTGATAAACCGGACAGTATCATGGACCGGTTTTCCCGGTAATCCGTATTTGCAAGGTTGGTTTCACT; site = the 11-nt target
Summary of the method: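 Pooled E. coli screen pairing targets with IS621 bridge RNA target-binding loops. Each oligo (promoter, target, barcode, J23119-driven first 104 bridge RNA bases) was Gibson-cloned into a vector with the remaining 73 bp and T7-inducible recombinase, then co-electroporated with a donor plasmid. Two replicates each were plated on chloramphenicol/ampicillin LB agar (control) or chloramphenicol/ampicillin/kanamycin with 0.1 mM IPTG. Recombination efficiency is recombinant-junction barcode counts as CPM, averaged, control-corrected, reported as log10(CPM+1).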
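Note: IS621 recombinase and bridge RNA in Escherichia coli cells.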

Going from “CTTCGCCCTTGGGTTCTAACCTGTTGCTT (site CTTCGCCCTAA)” to “CTTCGGACTTGGGTTCTAACCTGTTGCAA (site CTTCGGACTTT)”, the “recombinant barcode read abundance (log10)” value rises from 0.109 to 1.62.

Going from “CTTCGGACTTGGGTTCTAACCTGTTGCAA (site CTTCGGGCTTT)” to “CTTCGGGCTTGGGTTCTAACCTGTTGCAG (site CATCGGGCTCT)”, the “recombinant barcode read abundance (log10)” value rises from 0.223 to 1.25.

First: CTTCGGGCTTGGGTTCTAACCTGTTGCAG (site CCTCGGGCTCT)
Second: CTTCGGGCTTGGGTTCTAACCTGTTGCAG (site CGTCGGGCTCT)
The “recombinant barcode read abundance (log10)” value of the first is higher: 1.3 for the first, 0.0132 for the second.

Compared with “CTTCGGGCTTGGGTTCTAACCTGTTGCAG (site CTTCGGGCTCT)”, “CTTCGTCCTTGGGTTCTAACCTGTTGCAT (site CTTCGTCCTAA)” is lower in “recombinant barcode read abundance (log10)” value: 1.96 for the first, 0.0066 for the second.

“CTTCGTCCTTGGGTTCTAACCTGTTGCAT (site CTTCGTCCTAC)” and “CTTCGTCCTTGGGTTCTAACCTGTTGCAT (site CTTCGTCCTAG)” are within 0.2 log units of each other in “recombinant barcode read abundance (log10)” value: 0.133 for the first, 0.139 for the second.

First: CTTCGTCCTTGGGTTCTAACCTGTTGCAT (site CTTCGTCCTAT)
Second: CTTGAATCTTGGGTTCTAACCTGTTGCCT (site CTTAAATCTAG)
The “recombinant barcode read abundance (log10)” value of the first is higher: 0.658 for the first, 0.117 for the second.

Compared with “CTTGAATCTTGGGTTCTAACCTGTTGCCT (site CTTCAATCTAG)”, “CTTGAATCTTGGGTTCTAACCTGTTGCCT (site CTTGAATCTAG)” is higher in “recombinant barcode read abundance (log10)” value: 0.0867 for the first, 0.379 for the second.

“CTTGAATCTTGGGTTCTAACCTGTTGCCT (site CTTTAATCTAG)” and “CTTGAGACTTGGGTTCTAACCTGTTGCCT (site CTTCAGGCTAG)” are within 0.2 log units of each other in “recombinant barcode read abundance (log10)” value: 0.337 for the first, 0.256 for the second.

First: CTTGAGACTTGGGTTCTAACCTGTTGCCT (site CTTGAGACTAG)
Second: CTTGGACCTTGGGTTCTAACCTGTTGCAG (site CTTCGACCTAT)
The “recombinant barcode read abundance (log10)” value of the first is higher: 2.02 for the first, 0.00985 for the second.

Going from “CTTGGACCTTGGGTTCTAACCTGTTGCAG (site CTTGGACCTCT)” to “CTTGGACCTTGGGTTCTAACCTGTTGCCT (site CTTGGAACTAG)”, the “recombinant barcode read abundance (log10)” value falls from 2.55 to 0.222.

Going from “CTTGGACCTTGGGTTCTAACCTGTTGCCT (site CTTGGACCTAG)” to “CTTGGACCTTGGGTTCTAACCTGTTGCCT (site CTTGGAGCTAG)”, the “recombinant barcode read abundance (log10)” value falls from 1.74 to 0.0408.

“CTTGGACCTTGGGTTCTAACCTGTTGCCT (site CTTGGATCTAG)” and “CTTGGTTCTTGGGTTCTAACCTGTTGCCT (site CTTGGGTCTAG)” are within 0.2 log units of each other in “recombinant barcode read abundance (log10)” value: 0.113 for the first, 0.108 for the second.

Compared with “CTTGGTTCTTGGGTTCTAACCTGTTGCCT (site CTTGGTTCTAG)”, “CTTTAAGCTTGGGTTCTAACCTGTTGCTA (site ACCGTTCCTAG)” is lower in “recombinant barcode read abundance (log10)” value: 0.33 for the first, 0.0964 for the second.

“CTTTAAGCTTGGGTTCTAACCTGTTGCTA (site CTTTAAGCTTA)” and “CTTTAATCTTGGGTTCTAACCTGTTGCCT (site CTTAAATCTAG)” are within 0.2 log units of each other in “recombinant barcode read abundance (log10)” value: 0.195 for the first, 0.349 for the second.

“CTTTAATCTTGGGTTCTAACCTGTTGCCT (site CTTCAATCTAG)” and “CTTTAATCTTGGGTTCTAACCTGTTGCCT (site CTTGAATCTAG)” are within 0.2 log units of each other in “recombinant barcode read abundance (log10)” value: 0.158 for the first, 0.0679 for the second.

“CTTTAATCTTGGGTTCTAACCTGTTGCCT (site CTTTAATCTAG)” and “CTTTAGACTTGGGTTCTAACCTGTTGCAT (site CTCTAGACTAC)” are within 0.2 log units of each other in “recombinant barcode read abundance (log10)” value: 0.165 for the first, 0.0162 for the second.

First: CTTTAGACTTGGGTTCTAACCTGTTGCAT (site CTTTAGACTAT)
Second: CTTTCCTCTTGGGTTCTAACCTGTTGCCT (site CATTCCTCTAG)
The “recombinant barcode read abundance (log10)” value of the first is higher: 0.926 for the first, 0.153 for the second.

“CTTTCCTCTTGGGTTCTAACCTGTTGCCT (site CCTTCCTCTAG)” and “CTTTCCTCTTGGGTTCTAACCTGTTGCCT (site CGTTCCTCTAG)” are within 0.2 log units of each other in “recombinant barcode read abundance (log10)” value: 0.0332 for the first, 0.0618 for the second.

Compared with “CTTTCCTCTTGGGTTCTAACCTGTTGCCT (site CTTTCCTCTAG)”, “CTTTCCTCTTGGGTTCTAACCTGTTGCTT (site CATTACTCTAA)” is lower in “recombinant barcode read abundance (log10)” value: 0.831 for the first, 0.2 for the second.

Going from “CTTTCCTCTTGGGTTCTAACCTGTTGCTT (site CTTTCCTCTAA)” to “CTTTCGTCTTGGGTTCTAACCTGTTGCCT (site CTTTCACCTAG)”, the “recombinant barcode read abundance (log10)” value falls from 0.92 to 0.0235.

“CTTTCGTCTTGGGTTCTAACCTGTTGCCT (site CTTTCGTCTAG)” and “CTTTGAGCTTGGGTTCTAACCTGTTGCAT (site CTTCGGGCTAT)” are within 0.2 log units of each other in “recombinant barcode read abundance (log10)” value: 0.0335 for the first, 0.0604 for the second.

For “CTTTGAGCTTGGGTTCTAACCTGTTGCAT (site CTTTGAGCTAT)”, the “recombinant barcode read abundance (log10)” value was 0.632.

From the supplement of paper PMC11208160
